Reference: patent US20220211877A1, “COMPOUND FOR INTRAOPERATIVE MOLECULAR BIOIMAGING, METHOD OF MAKING THE SAME, USE THEREOF IN INTRAOPERATIVE MOLECULAR BIOIMAGING AND SURGICAL METHOD COMPRISING INTRAOPERATIVE MOLECULAR BIOIMAGING” (Klinikum rechts der lsar der Techischen Universität München, priority 2018, published 2022)
Where a SMILES comes first, the peptide text is derived from it. Side-chain parts run from the residue outwards. [ ]: non-standard residue; d: D form. The star is where a group is joined. IRDye800CW = CC1(C)C(/C=C/C2=C(Oc3ccc(S(=O)(=O)O)cc3)C(=C/C=C3/N(CCCCS(=O)(=O)O)c4ccc(S(=O)(=O)O)cc4C3(C)C)/CCC2)=[N+](CCCCCC(=O)*)c2ccc(S(=O)(=O)[O-])cc21; NMeK = CN[C@@H](CCCCN)C(=O)O; Ahx = NCCCCCC(=O)O

How the values were obtained:
[1] = biodistribution by fluorescence intensity in HNSCC PDX mice
Method: Relying on fluorescence intensity measurements, the distribution and accumulation of FRX103 in the organism was determined over the time period shown.

[2] = biodistribution and nonspecific binding in control animals (control TX, sham TX, unoperated); settings: for renal clearance: 6 h after injection
Method: Similarly, healthy oral epithelium was transplanted for control experiments.
Control experiments were performed with sham operations and transplantation with healthy control tissue, which were imaged with FRX110 and FRX109 as the control tracer.
The specificity of the binding was investigated in the in vivo model with the control tracer FRX109. FRX109 was visualized in mice with a sham graft (sham TX) of human carcinoma tissue (no tissue was transplanted).

αvβ8 = αvβ8 (Homo sapiens, UniProt P06756+P26012); assay: solid-phase integrin binding assay; settings: n = 2
αvβ8, sequence (P06756 31-889 limits assumed): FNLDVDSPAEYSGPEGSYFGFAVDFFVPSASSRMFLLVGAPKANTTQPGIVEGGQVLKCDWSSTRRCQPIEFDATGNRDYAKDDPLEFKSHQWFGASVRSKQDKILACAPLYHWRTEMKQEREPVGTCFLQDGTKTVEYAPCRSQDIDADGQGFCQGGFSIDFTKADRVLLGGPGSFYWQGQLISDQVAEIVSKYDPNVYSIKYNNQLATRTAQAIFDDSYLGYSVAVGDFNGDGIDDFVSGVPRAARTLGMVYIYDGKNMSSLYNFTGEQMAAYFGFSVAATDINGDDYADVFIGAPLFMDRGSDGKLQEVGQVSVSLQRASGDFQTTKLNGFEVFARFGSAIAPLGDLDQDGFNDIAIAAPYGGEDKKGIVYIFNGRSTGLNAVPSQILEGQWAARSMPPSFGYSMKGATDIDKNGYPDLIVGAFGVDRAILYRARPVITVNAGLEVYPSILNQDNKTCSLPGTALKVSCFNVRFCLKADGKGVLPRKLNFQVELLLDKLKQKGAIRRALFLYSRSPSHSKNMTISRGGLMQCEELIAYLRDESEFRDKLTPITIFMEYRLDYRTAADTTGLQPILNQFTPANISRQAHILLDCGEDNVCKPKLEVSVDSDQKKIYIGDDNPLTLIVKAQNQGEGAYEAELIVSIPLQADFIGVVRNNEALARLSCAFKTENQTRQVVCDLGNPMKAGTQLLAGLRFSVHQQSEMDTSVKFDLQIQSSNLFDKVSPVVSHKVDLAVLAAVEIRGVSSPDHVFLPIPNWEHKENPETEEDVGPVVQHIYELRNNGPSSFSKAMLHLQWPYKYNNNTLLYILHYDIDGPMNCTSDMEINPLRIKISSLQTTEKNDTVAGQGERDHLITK
αvβ8, sequence (P06756 891-992 partner limits assumed): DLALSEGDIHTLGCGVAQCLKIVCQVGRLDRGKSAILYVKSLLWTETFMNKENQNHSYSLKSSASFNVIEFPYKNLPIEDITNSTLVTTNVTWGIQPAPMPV
αvβ8, sequence (P26012 43-684 limits assumed): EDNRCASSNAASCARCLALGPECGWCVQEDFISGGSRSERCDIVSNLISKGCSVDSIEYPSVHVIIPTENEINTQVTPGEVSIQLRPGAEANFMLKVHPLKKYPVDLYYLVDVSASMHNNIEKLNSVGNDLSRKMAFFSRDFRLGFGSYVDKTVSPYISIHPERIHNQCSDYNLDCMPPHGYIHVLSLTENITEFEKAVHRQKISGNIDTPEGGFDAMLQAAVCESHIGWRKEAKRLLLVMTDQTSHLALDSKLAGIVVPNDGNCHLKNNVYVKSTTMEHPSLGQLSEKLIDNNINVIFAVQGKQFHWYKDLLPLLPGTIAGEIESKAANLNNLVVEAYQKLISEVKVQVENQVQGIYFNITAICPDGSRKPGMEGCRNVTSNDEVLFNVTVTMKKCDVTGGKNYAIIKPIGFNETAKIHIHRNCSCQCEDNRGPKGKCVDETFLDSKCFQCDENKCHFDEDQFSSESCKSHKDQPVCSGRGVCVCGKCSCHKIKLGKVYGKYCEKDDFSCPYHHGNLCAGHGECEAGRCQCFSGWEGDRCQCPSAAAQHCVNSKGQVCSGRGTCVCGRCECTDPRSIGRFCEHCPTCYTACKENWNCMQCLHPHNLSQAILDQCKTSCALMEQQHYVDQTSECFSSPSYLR

HN cells = assay: cell binding experiment, fluorescence microscopy; format: cell-based, human; settings: for fluorescence signal intensity on cells: fixed HN cells, 10 μM, 1 h at r.t.
Description: (§1) Human OSCC cell lines HN was purchased from the German Collection of Microorganisms and Cell Cultures, Braunschweig, Germany (DSMZ no. ACC 417 (HN) The HN cell line was established from a cervical lymph node metastasis of an invasive squamous cell carcinoma of the soft palate. The metastasis occurred 7 years after treatment of the primary tumour and metastasized to the lung and brain. ^49 As control cells, we used the human ovarian cancer cell line OVMZ6 with low integrin avb6 and high integrin αvβ3 expression. ^50 All cells were cultivated in Dulbecco's Modified Eagle's Medium (DMEM) (Sigma-Aldrich, St. Louis, Mo., USA), supplemented with 10% (v/v) fetal calf serum (FCS) (Gibco, Lifelechnologies™, Carlsbad, Calif., USA).
(§2) HN and OVMZ6 cells were cultivated for 24 h on fibronectin-coated microchamber slides at a density of 25×10^3/well, thereafter fixed in 2% (w/v) PFA for 15 min at r.t. and washed in PBS. The Cy5.5-conjugated compound OM_1231, dissolved in PBS, 5% (v/v) dimethyl sulfoxide (DMSO), was applied at a final concentration of 10 μM for 1 h at r.t., followed by 3 washes in PBS. […] As control peptide served the non-binding cycl(R^betaADfK) labelled via lysine side-chain NH2 group with Cy5.5 fluorescent dye (code OM_1224). After the incubation period, cells were washed 6 times in PBS and slides mounted. Fluorescence signal intensity was detected by the microscope Zeiss LSM 700 (Zeiss) as described above. Images were merged by applying for the fluorescence image the LUT “blue to red”: low intensity: blue; medium intensity: green; and high intensity: red.

OVMZ6 cells = assay: cell binding experiment, fluorescence microscopy; format: cell-based, human; settings: fixed OVMZ6 cells (low αvβ6, high αvβ3), 10 μM
Description: as §1, §2

αvβ6 = αvβ6 (Homo sapiens, UniProt P06756+P18564); assay: solid-phase integrin binding assay; settings: n = 2
αvβ6, sequence (P06756 31-889 limits assumed): as the sequence (P06756 31-889 limits assumed) above
αvβ6, sequence (P06756 891-992 partner limits assumed): as the sequence (P06756 891-992 partner limits assumed) above
αvβ6, sequence (P18564 22-707 limits assumed): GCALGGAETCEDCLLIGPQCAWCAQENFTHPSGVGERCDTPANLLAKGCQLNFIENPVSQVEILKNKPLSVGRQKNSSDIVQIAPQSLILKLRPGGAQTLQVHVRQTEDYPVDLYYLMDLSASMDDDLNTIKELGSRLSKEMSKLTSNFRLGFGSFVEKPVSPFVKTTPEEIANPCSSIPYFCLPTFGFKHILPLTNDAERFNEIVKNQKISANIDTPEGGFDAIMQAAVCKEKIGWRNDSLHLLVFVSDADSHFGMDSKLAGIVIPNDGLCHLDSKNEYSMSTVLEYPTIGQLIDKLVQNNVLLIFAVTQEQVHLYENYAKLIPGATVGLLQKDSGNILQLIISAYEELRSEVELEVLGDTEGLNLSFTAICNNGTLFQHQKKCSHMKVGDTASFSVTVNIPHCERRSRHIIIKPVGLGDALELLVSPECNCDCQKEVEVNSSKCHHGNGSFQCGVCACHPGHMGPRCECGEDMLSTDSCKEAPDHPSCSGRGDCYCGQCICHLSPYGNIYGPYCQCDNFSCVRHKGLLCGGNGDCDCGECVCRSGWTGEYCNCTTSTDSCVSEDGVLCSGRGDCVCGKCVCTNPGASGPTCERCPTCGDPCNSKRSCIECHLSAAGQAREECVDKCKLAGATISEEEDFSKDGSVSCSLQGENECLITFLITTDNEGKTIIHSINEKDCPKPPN

αvβ3 = αvβ3 (Homo sapiens, UniProt P05106+P06756); assay: solid-phase integrin binding assay; settings: n = 2
αvβ3, sequence (P06756 31-889 limits assumed): as the sequence (P06756 31-889 limits assumed) above
αvβ3, sequence (P06756 891-1048 partner limits assumed): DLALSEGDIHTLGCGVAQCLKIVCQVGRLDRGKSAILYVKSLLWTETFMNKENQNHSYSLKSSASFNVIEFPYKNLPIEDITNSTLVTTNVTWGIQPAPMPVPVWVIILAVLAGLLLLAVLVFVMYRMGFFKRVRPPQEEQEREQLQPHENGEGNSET
αvβ3, sequence (P05106 27-788): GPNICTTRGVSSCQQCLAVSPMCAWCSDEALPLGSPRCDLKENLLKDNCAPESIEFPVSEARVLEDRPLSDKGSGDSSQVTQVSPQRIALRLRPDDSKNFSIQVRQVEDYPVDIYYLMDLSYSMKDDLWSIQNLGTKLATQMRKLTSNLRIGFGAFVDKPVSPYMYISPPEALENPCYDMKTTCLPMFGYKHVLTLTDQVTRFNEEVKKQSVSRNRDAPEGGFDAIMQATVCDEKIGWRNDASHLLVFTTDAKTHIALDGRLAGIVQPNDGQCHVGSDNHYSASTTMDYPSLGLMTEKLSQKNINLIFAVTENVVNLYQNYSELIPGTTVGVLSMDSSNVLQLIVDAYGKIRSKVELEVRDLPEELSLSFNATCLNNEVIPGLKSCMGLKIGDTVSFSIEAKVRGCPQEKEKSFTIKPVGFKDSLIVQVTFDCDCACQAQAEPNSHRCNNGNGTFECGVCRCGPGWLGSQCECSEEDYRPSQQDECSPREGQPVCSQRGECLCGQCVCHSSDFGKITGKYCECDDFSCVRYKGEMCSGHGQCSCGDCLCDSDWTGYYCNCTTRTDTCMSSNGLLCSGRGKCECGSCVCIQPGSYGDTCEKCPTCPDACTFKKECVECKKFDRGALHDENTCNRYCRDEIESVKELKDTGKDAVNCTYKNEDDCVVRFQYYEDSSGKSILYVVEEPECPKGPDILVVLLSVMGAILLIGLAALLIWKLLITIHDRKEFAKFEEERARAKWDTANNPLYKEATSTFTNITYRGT

αvβ5 = αvβ5 (Homo sapiens, UniProt P06756+P18084); assay: solid-phase integrin binding assay; settings: n = 2
Method: (§3) The integrin binding affinity and selectivity profile of the compounds was determined by a solid-phase binding assay as previously described.^48

invasive HNSCC tissue = assay: molecular bioimaging in HNSCC PDX mouse model; format: in vivo, NOD/SCID mice
Method: An orthotopic HNSCC PDX (head and neck squamous cell carcinoma patient derived xenotransplant) mouse model was developed that allows the analysis of invasive, orthotropic human carcinoma tissue. HNSCC tissue samples were transplanted into the neck area of NOD/SCID mice. This provides epithelial derived carcinoma tissue in a mesenchymal tissue context to mimic the epithelial-mesenchymal interface between invasive carcinoma tissue and stroma. […]
Bioimgaing was performed relying on equipment described in ^42 using a 750 nm CW laser diode (BWF2-750-0, B & W Tek, Newark, Del., USA) with a maximum power of 300 mW was used to excite the fluorophores. […] The laser power was measured at a working distance of 15 cm at 85 mW/cm 2, which is lower than the maximum permissible exposure according to the standard of the American National Standards Institute (ANSI). A short-pass filter (E700SP, Chroma Technology, Rockingham, Vt., USA) was used to eliminate component of the field illumination NIRF signal to preclude interference between the fluorescence detection field and the field illumination light path (F1). […]
The measurements of the average fluorescence intensity/pixels were made in two regions of interests (ROIs). […]
The quotient ROI1/ROI2 of the average fluorescence intensity/pixel is given as tumor tissue to background ratio (TBR). […]

α5β1 = α5β1 (Homo sapiens, UniProt P05556+P08648); assay: solid-phase integrin binding assay; settings: n = 2
α5β1, sequence (P08648 42-894 limits assumed): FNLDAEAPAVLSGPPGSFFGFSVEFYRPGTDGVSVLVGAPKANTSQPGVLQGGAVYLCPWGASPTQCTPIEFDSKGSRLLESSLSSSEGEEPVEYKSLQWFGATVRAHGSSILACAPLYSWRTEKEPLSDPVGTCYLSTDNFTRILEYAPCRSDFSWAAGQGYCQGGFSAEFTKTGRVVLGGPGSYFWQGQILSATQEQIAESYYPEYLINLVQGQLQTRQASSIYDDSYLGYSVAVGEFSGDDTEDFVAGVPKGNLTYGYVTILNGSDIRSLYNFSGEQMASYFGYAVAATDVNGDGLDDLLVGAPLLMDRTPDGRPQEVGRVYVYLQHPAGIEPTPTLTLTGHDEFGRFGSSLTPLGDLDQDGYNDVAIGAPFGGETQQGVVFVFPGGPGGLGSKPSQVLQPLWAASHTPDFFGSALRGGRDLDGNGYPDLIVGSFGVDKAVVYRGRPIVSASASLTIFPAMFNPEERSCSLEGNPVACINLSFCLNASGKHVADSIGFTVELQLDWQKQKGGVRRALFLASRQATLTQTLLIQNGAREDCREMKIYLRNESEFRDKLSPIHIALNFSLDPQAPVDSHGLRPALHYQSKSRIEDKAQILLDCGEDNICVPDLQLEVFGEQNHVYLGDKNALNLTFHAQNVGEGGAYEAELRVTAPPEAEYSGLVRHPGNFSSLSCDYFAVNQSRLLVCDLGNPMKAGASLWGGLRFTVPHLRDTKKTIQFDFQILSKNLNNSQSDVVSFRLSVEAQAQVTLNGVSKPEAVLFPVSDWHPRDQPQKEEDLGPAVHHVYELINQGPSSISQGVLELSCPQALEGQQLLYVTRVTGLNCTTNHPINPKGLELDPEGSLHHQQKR
α5β1, sequence (P08648 895-995 partner limits assumed): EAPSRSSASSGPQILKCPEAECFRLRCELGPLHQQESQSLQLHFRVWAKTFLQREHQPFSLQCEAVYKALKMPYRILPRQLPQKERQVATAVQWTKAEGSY
α5β1, sequence (P05556 21-728 limits assumed): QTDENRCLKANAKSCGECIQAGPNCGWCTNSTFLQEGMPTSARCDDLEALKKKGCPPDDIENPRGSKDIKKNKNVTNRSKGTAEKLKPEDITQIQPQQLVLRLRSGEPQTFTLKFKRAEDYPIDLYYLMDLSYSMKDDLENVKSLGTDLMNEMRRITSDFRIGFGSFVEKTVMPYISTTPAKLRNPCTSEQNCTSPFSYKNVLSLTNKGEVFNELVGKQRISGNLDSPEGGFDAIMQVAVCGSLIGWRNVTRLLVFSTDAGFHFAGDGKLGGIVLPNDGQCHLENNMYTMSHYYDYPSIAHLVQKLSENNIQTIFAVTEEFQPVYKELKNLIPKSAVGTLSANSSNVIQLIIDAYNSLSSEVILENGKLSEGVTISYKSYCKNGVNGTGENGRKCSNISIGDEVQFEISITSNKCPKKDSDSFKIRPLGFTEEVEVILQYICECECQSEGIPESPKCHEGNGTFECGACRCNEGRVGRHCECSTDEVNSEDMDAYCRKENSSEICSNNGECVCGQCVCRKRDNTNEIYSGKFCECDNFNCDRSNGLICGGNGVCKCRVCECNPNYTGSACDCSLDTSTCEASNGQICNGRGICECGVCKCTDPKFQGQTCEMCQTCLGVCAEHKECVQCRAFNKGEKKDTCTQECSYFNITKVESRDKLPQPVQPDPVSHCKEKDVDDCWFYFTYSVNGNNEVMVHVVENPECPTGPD

αIIbβ3 = αIIbβ3 (Homo sapiens, UniProt P05106+P08514); assay: solid-phase integrin binding assay; settings: n = 2
Method: as §3

[3] = 0-24 h post injectionem, FIG. 5b

Molecule | IC50 (αvβ8) [nM] | fluorescence signal intensity on cells (HN cells) | IC50 (αvβ6) [nM] | renal clearance ([2]; FIG. 5c) | IC50 (αvβ3) [nM] | IC50 (αvβ5) [nM] | IC50 (α5β1) [nM] | also measured
CC(C)C[C@@H]1NC(=O)[C@H](CC(=O)O)NC(=O)CNC(=O)[C@H](CCCNC(=N)N)NC(=O)[C@H](Cc2ccccc2)NC(=O)[C@H](CCCCNC(=O)CCCCCNC(=O)CCCCC[N+]2=C(/C=C/C3=CC(=C/C=C4/N(C)c5ccc6ccccc6c5C4(C)C)/CCC3)C(C)(C)c3c2ccc2ccccc32)N(C)C(=O)[C@H]2CCCN2C(=O)[C@H](Cc2ccccc2)NC(=O)[C@H](C)NC1=O [FRX103, cyc(FRGDLAFp(NMe)K(Ahx-Cy7.5))] |  |  |  |  |  |  |  | time p.i. of best ratio between specific signal and background signal ([1]; i.v., HNSCC PDX mice): 24 h; accumulation in the area of carcinoma tissue ([1]; i.v., up to 24 h p.i., FIG. 5a): constant accumulation; elimination after 24 h ([1]; mouse, in vivo, iv): does not show any elimination; nonspecific accumulation in the area of transplantation ([2]; control TX (healthy epithelial grafting)): no nonspecific accumulation; signal in liver and pancreas ([2]; mouse, in vivo): persistent signal
CC(C)C[C@@H]1NC(=O)[C@H](CC(=O)O)NC(=O)CNC(=O)[C@H](CCCNC(=N)N)NC(=O)[C@H](Cc2ccccc2)NC(=O)[C@H](CCCCNC(=O)CCCCCNC(=O)CCCCC[N+]2=C(/C=C/C=C/C=C3/N(C)c4ccc5ccccc5c4C3(C)C)C(C)(C)c3c2ccc2ccccc32)N(C)C(=O)[C@H]2CCCN2C(=O)[C@H](Cc2ccccc2)NC(=O)[C@H](C)NC1=O [OM1231, cyc(FRGDLAFp(NMe)K(Ahx-Cy5.5))] | 234 ± 33 | strong fluorescence signal intensity on cell membranes | 27 ± 2 |  |  |  |  | fluorescence signal intensity after blocking (HN cells; HN cells, unlabeled OM_1204 at 10-fold molar excess 1 h prior to OM_1231 (10 μM)): strong reduction in fluorescence signal intensity; recognition of cellular integrin αvβ3 (OVMZ6 cells): did not recognize cellular integrin αvβ3
CC(C)C[C@@H]1NC(=O)[C@H](CC(=O)O)NC(=O)CNC(=O)[C@H](CCCNC(=N)N)NC(=O)[C@H](Cc2ccccc2)NC(=O)[C@H](CCCCNC(=O)CCCCCNC(=O)CCCCC[N+]2=C(/C=C/C3=C(Oc4ccc(S(=O)(=O)O)cc4)C(=C/C=C4/N(CCCCS(=O)(=O)O)c5ccc(S(=O)(=O)O)cc5C4(C)C)/CCC3)C(C)(C)c3cc(S(=O)(=O)[O-])ccc32)N(C)C(=O)[C@H]2CCCN2C(=O)[C@H](Cc2ccccc2)NC(=O)[C@H](C)NC1=O [FRX110, cyc(FRGDLAFp(NMe)K(Ahx-IRDye ® 800CW))] | 129 ± 36 |  | 2.2 ± 0.2 | good renal clearance | 408 ± 61 | > 10000 | 37 ± 6 | TBR [1, 3]: 1.0; unspecific accumulation or binding [1, 3]: does not reveal unspecific accumulation or binding; time to elimination of unbound compound via the renal system ([1]; i.v.): ≤ 24 h; tissue to background (TBR) ratio ([2]; control animals, FIG. 5c): low; unspecific tracer enhancement ([2]; control animals, FIG. 5c): without unspecific tracer enhancement; binding to invasive growing carcinoma xenotransplants (invasive HNSCC tissue; 1st to 12th week p. TX): specific binding; tissue to background (TBR) ratio (invasive HNSCC tissue; 5th week p. TX, i.v. tail vein, FIG. 4a): high
cyc(R-betaAla-D-f-K(Ahx-Cy5.5)) [OM1224] |  | did not result in fluorescence signal intensity |  |  |  |  |  | 
CC(C)C[C@@H]1NC(=O)[C@H](CC(=O)O)NC(=O)[C@H](C)NC(=O)[C@H](CCCNC(=N)N)NC(=O)[C@H](Cc2ccccc2)NC(=O)[C@H](CCCCNC(=O)CCCCCNC(=O)CCCCC[N+]2=C(/C=C/C3=C(Oc4ccc(S(=O)(=O)O)cc4)C(=C/C=C4/N(CCCCS(=O)(=O)O)c5ccc(S(=O)(=O)O)cc5C4(C)C)/CCC3)C(C)(C)c3cc(S(=O)(=O)[O-])ccc32)N(C)C(=O)[C@H]2CCCN2C(=O)[C@H](Cc2ccccc2)NC(=O)[C@H](C)NC1=O [FRX109, cyc(FRADLAFp(NMe)K(Ahx-IRDye ® 800CW))] (cyclo(FRADLAF[dP][NMeK]([Ahx-IRDye800CW]))) | > 4000 |  | 122 ± 12 | good renal clearance | > 10000 | > 10000 | > 1000 | IC50 (αIIbβ3): > 1000 nM
